Source: paper PMC9994261 (Cell, 2023)
≈ marks a conversion by molar mass, not a printed value. Where “and” joins values, the source holds several entries; their conditions need not be identical. Equal values may be shown once. Read-outs that look alike come from different tables or passages of the source.

Columns and labels:
[1] = test system: Mtb H37Rv SEQ-9 resistant mutants; type: cell-based, Mycobacterium tuberculosis
Mtb clinical strains = assay: microbe, parasite or virus in culture; type: cell-based; conditions: Mycobacterium tuberculosis, read-out: MIC against Mtb clinical strain

Q: For `COc1nc2ccc(Br)cc2cc1[C@@H](c1ccccc1)[C@@](O)(CCN(C)C)c1cccc2ccccc12` [BDQ, Bedaquiline], which “Growth inhibition (MIC80)” value [1] is on record?
A: 0.044 µM and 0.042 µM and 0.036 µM

Q: For `CC[C@H]1OC(=O)[C@H](C)[C@@H](O[C@H]2C[C@@](C)(OC)[C@@H](O)[C@H](C)O2)[C@H](C)[C@@H](O[C@@H]2O[C@H](C)C[C@H](N(C)C)[C@H]2O)[C@](C)(OC)C[C@@H](C)C(=O)[C@H](C)[C@@H](O)[C@]1(C)O` [Clarithromycin], which “Growth inhibition @ 30µM” value ([1]; 30 µM) is on record?
A: 55% and 70%

Q: With `CC(=O)NC[C@H]1CN(c2ccc(N3CCOCC3)c(F)c2)C(=O)O1` [Linezolid] as the molecule, how does the “Growth inhibition (MIC80)” value [1] read?
A: 0.92 µM and 0.95 µM and 1.14 µM and 0.80 µM and 0.79 µM

Q: How did the MIC (Mtb clinical strains; KMA1354-Modern) turn out when `CON=C1CC(C)OC(OC2C(C)CC(C)(OC(=O)NC(C)(C)CNS(=O)(=O)c3ccccc3)C(=O)C(C)C(OC(=O)CC(C)C)C(C)C(C(C)COC3OC(C)C(O)C(OC)C3OC)OC(=O)C(C)C(OC3CC(C)N(C)CC(C)O3)C2C)C1O` (stereo not drawn) [SEQ-9] was run?
A: 0.9 µM (≈ 1.12 µg/mL)

Q: And the MIC (Mtb clinical strains; KMA3899-Ancient)?
A: 1.4 µM (≈ 1.74 µg/mL)

Q: What about the MIC (Mtb clinical strains; KMA4244-Modern) of the same molecule?
A: 1.4 µM (≈ 1.74 µg/mL)

Q: What about the MIC (Mtb clinical strains; KMA4439-Modern) of the same molecule?
A: 1.4 µM (≈ 1.74 µg/mL)

Q: And the MIC (Mtb clinical strains; KMA5282-Modern)?
A: 0.6 µM (≈ 0.746 µg/mL)

Q: What about the MIC (Mtb clinical strains; KMA5319-Modern) of the same molecule?
A: 0.7 µM (≈ 0.87 µg/mL)
